Measured values taken from patent US7311393B2, “Inkjet recording ink and method of inkjet recording” (Fujifilm Corporation, priority 2002, dated 2007).

Columns and labels:
[1] = Oxidation potential of dye; type: physicochemical; conditions: comparative dyes
Protocol: More specifically, a test sample is dissolved to a concentration of 1×10^−4 to 1×10^−6 mol/liter in a solvent such as dimethylformamide or acetonitrile containing a supporting electrolyte such as sodium perchlorate or tetrapropylammonium perchlorate and the oxidation potential is measured as a value to SCE (saturated calomel electrode) by using a cyclic voltammetry or a direct current polarography. This value sometimes deviates on the order of tens of millivolt due to the effect of liquid junction potential, liquid resistance of sample solution, or the like, but the reproducibility of potential can be guaranteed by adding a standard sample (for example, hydroquinone).
In order to univocally specify the potential, in the present invention, the value (vs SCE) measured by a direct current polarography in a dimethylformamide (concentration of dye: 0.001 mol dm^−3) containing 0.1 mol dm^−3 of tetrapropylammonium perchlorate as the supporting electrolyte is used as the oxidation potential of the dye.

[2] = Spectral absorption characteristics of dye; type: physicochemical; conditions: comparative dyes
Text: The dye for use in the present invention preferably has good fastness and also has good color hue, particularly, no tailing on the long-wave side in the absorption spectrum. […]

In the case of `Cc1nn(-c2ccc(S(=O)(=O)[O-])cc2)c(O)c1/N=N/c1cccc(S(=O)(=O)Nc2cc(C(=O)[O-])cc(C(=O)[O-])c2)c1.[K+].[K+].[K+]` [Dye (C)], the oxidation potential [1] is reported as ≤ 1.0 V (vs SCE) and the “I(λmax)/I(λmax+70 nm)” value [2] is reported as ≤ 0.4.
In the case of Direct Yellow 11 [Dye (D)], the oxidation potential [1] is reported as ≤ 1.0 V (vs SCE) and the “I(λmax)/I(λmax+70 nm)” value [2] is reported as > 0.4.
